Assays:
[1] = system: MAPK14 (mitogen-activated protein kinase 14); test: Gene expression experiment (real-time PCR) in SH-SY5Y cells: MAPK14; assay type: cell-based; settings: 24 h
Protocol: (§1) SH-SY5Y cells were seeded in 100 mm-cell dishes (BD Biocoat) at concentrations of 3.7×10^5 cells/mL (10 mL/dish) and cultured for 24 h at 37° C. and 5% CO2. Culture medium used was F12/DMEM (Gibco) supplemented with 1% non-essential amino acids (Gibco), 15% FBS (Bio West), and 1% penicillin/streptomycin (Lonza). After 24 h, the culture medium was completely removed with an aspirator, 10 mL of culture medium Opti-MEM(Gibco) was added to each dish, and the cells were cultured for 24 h at 37° C. and 5% CO2. RNA was extracted from the culture cells and analyzed for the expression of genes described below by real-time PCR (designated as “Control” in FIGS. 2 to 8).
(§2) RNA extraction was performed using ISOGEN Reagent (Nippon Gene Co., Ltd.) in accordance with the protocol recommended by Nippo n Gene Co., Ltd. (see URL: https://www.nippongene.com/siyaku/product/extraction/tds/tds_isogen-rna-dna-protein.pdf). Real-time PCR was performed according to the protocol recommended by Thermo Fisher Scientific using a reagent kit for TaqMan Real-Time PCR (Thermo Fisher Scientific) (see URL: https://assets.thermofisher.com/TFS-Assets/LSG/manuals/4304449_TaqManPCRMM_UG.pdf).
(§3) 24 h after seeding 100 mm-cell dishes (BD Biocoat) with SH-SY5Y cells, the culture medium was completely removed with an aspirator, amyloid β protein (Beta-Amyloid 1-42, AnaSpec) was mixed with Opti-MEM (Gibco) so that the final concentration was 5 μM, 10 mL of the mixture was added to each dish, the cells were cultured for 24 h at 37° C. and 5% CO2, and RNA was extracted. Except for performing the procedure described above, gene expression was analyzed as described above (designated as “Aβ” in FIGS. 2 to 8).
(§4) 24 h after seeding 100 mm-cell dishes (BD Biocoat) with SH-SY5Y cells, the culture medium was completely removed with an aspirator, Sample 1 was mixed with culture medium Opti-MEM(Gibco) so that the final concentration was 12.56 μM, 9,990 μL of the mixture was added to each dish and allowed to stand for 10 min, amyloid β protein (Beta-Amyloid 1-42, AnaSpec) was mixed with Opti-MEM (Gibco) so that the final concentration was […], 10 μL of the mixture was added to each well, the cells were cultured for 24 h at 37° C. and 5% CO2, and RNA was extracted. Except for performing the procedure described above, Gene expression was analyzed as described above (designated as “Aβ+M3,5G” in FIGS. 2 to 8).
(§5) Except that Sample 2 was used instead of Sample 1, gene expression was analyzed as described above (designated as “Aβ+M” in FIGS. 2 to 8).
Except that Sample 3 was used instead of Sample 1, gene expression was analyzed as described above (designated as “Aβ+M3G” in FIGS. 2 to 8). […]

[2] = system: PI3KCA (phosphatidylinositol-4,5-bisphosphate 3-kinase catalyst subunit α); test: Gene expression experiment (real-time PCR) in SH-SY5Y cells: PI3KCA; assay type: cell-based; settings: for expression of PI3KCA: 24 h
Protocol: as §1, §2, §3, §4, §5
Except that Sample 3 was used instead of Sample 1, gene expression was analyzed as described above (designated as “Aβ+M3G” in FIGS. 2 to 8).
24 h after seeding 100 mm-cell dishes (BD Biocoat) with SH-SY5Y cells, the culture medium was completely removed with an aspirator, 10 mL of culture medium Opti-MEM(Gibco) mixed with Sample 1 was added to each dish, the cells were cultured for 24 h at 37° C. and 5% CO2, and RNA was extracted. Except for performing the procedure described above, gene expression was analyzed as described above (designated as “M3,5G” in FIGS. 2 to 8).

[3] = 12.56 μM, amyloid β protein-treated cells, compared to “Aβ”
[4] = Sample 1 alone, no amyloid β, compared to “Control”

SMILES: COc1cc(-c2[o+]c3cc(O)cc(OC4OC(CO)C(O)C(O)C4O)c3cc2OC2OC(CO)C(O)C(O)C2O)cc(OC)c1O (stereo not drawn) [M3,5G, Malvidin-3,5-diglucoside chloride]
- expression of MAPK14 [1, 3]: significantly high
- expression of MAPK14 [1, 4]: significantly increased
- expression of PI3KCA [2, 3]: significantly high
- expression of PI3KCA ([2]; 12.56 μM, amyloid β protein-treated cells, compared to “Control”): significantly high
- expression of PI3KCA [2, 4]: significantly increased
- activity in increasing the expression of PI3KCA ([2]; amyloid β protein-treated cells, 12.56 μM, ranked against malvidin and malvidin-3-glucoside): highest activity

— US20220241308A1, “NEURONAL FUNCTION MODULATING AGENT” (University of Tsukuba, priority 2019, published 2022)
